Earlier results on two compounds are cited in patent US10449245B2 (priority 2014, dated 2019).

This series concerns HIV-specific T cells. The note with it: IMiD present during stimulation with dendritic cells presenting Gag- or Nef-specific peptides; cited from earlier work.

`Nc1cccc2c1CN(C1CCC(=O)NC1=O)C2=O` (centres unmarked) [Lenalidomide]: the “function of T-cells after in vitro stimulation” value is “a number of improvements in the function of the T-cells”.
Consider `Nc1cccc2c1C(=O)N(C1CCC(=O)NC1=O)C2=O` (centres unmarked) [pomalidomide], for which the “function of T-cells after in vitro stimulation” value was “a number of improvements in the function of the T-cells”.
